This assay has as its target T1, mouse VISTA (mVISTA) (Mus musculus, UniProt Q9D659).
T1 construct: expressed in transfected cells; host or cells: Human embryonic kidney 293T cells
T1 sequence (Q9D659 33-308): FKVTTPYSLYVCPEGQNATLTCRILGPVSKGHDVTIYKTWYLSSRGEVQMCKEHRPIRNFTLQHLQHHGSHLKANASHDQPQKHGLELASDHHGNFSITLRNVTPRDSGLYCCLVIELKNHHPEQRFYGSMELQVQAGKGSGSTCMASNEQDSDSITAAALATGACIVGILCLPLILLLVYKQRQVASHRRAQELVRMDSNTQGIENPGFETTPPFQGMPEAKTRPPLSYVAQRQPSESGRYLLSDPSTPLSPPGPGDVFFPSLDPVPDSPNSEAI
Briefly: Cell-Based Binding High-Content Assay For mVISTA (HC CBA mVISTA). The following applies: read-out: HC CBA mVISTA IC50. The method, boiled down:
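Competition of compound with a biotinylated peptide (final 2 nM, 30 min at RT) for binding to mVISTA on 293T cells, run under no-wash or wash (1 h compound preincubation then removal) formats. Readout by Alexa 647–streptavidin imaging on a high-content platform; four-parameter logistic fit gave IC50.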

Setting [1] is: cell-based binding high-content assay, mVISTA, the 16th table.
[2] abbreviates: 293T cells expressing mouse VISTA, competition with biotinylated peptide (2 nM).

Broadly, the IC50 is the midpoint of a concentration-inhibition curve.

Read-outs that look alike come from different tables or passages of the source. Positions of bridges follow the written chain, without caps; N, C: chain ends. Non-standard residues stand in square brackets, D forms with d. Residues, ends and D or L forms follow the SMILES beside them. 2Nal = N[C@@H](Cc1ccc2ccccc2c1)C(=O)O; Ahp(2) = CCCCC[C@H](N)C(=O)O; NHexGly = CCCCCCNCC(=O)O; Nle = CCCC[C@H](N)C(=O)O

Regarding `CCCCCCN1CC(=O)N[C@@H](Cc2ccc(O)cc2)C(=O)N[C@@H](CCCC)C(=O)N[C@@H](CC(N)=O)C(=O)N[C@@H](CCCNC(=N)N)C(=O)N[C@@H](CC(C)C)C(=O)N[C@@H](CCCCC)C(=O)N2CCC[C@H]2C(=O)N[C@@H](C(C)C)C(=O)N[C@@H](CC(=O)O)C(=O)N[C@H](C(=O)N[C@@H](Cc2c[nH]c3ccccc23)C(N)=O)CSCC(=O)N[C@@H](Cc2ccc3ccccc3c2)C(=O)N[C@@H](Cc2ccc(O)cc2)C(=O)N[C@@H](CC(=O)O)C1=O` [Ex 1321] ({CH2CO}-[2Nal]YD[NHexGly]Y[Nle]NRL[Ahp(2)]PVDCW-NH2; thioether N-14), the IC50 under setting [1] worked out at 15.9 nM.
For the compound `CCCCCCN1CC(=O)N[C@@H](Cc2ccc(O)cc2)C(=O)N[C@@H](C(C)C)C(=O)NCC(=O)N[C@@H](CCCNC(=N)N)C(=O)N[C@@H](CC(C)C)C(=O)N[C@@H](CCCCC)C(=O)N2CCC[C@H]2C(=O)N[C@@H](C(C)C)C(=O)N[C@@H](CC(=O)O)C(=O)N[C@H](C(=O)N[C@@H](Cc2ccc(O)cc2)C(N)=O)CSCC(=O)N[C@@H](Cc2ccc3ccccc3c2)C(=O)N[C@@H](Cc2ccc(O)cc2)C(=O)N[C@@H](CC(=O)O)C1=O` [Ex 1322] ({CH2CO}-[2Nal]YD[NHexGly]YVGRL[Ahp(2)]PVDCY-NH2; thioether N-14), the IC50 under setting [1] is 5.5 nM.
As to `CCCCCCN1CC(=O)N[C@@H](Cc2ccc(O)cc2)C(=O)N[C@@H](CCCC)C(=O)N[C@@H](CC(N)=O)C(=O)N[C@@H](CCCNC(=N)N)C(=O)N[C@@H](CC(C)C)C(=O)N[C@@H](CCCCC)C(=O)N2CCC[C@H]2C(=O)N[C@@H](C(C)C)C(=O)N[C@@H](CC(=O)O)C(=O)N[C@H](C(=O)N[C@@H](Cc2ccc(O)cc2)C(N)=O)CSCC(=O)N[C@@H](Cc2ccc3ccccc3c2)C(=O)N[C@@H](Cc2ccc(O)cc2)C(=O)N[C@@H](CC(=O)O)C1=O` [Ex 1323] ({CH2CO}-[2Nal]YD[NHexGly]Y[Nle]NRL[Ahp(2)]PVDCY-NH2; thioether N-14), under setting [1], the concentration for half-maximal inhibition (IC50) was 13.5 nM.
Take `CCCCCCN1CC(=O)N[C@@H](Cc2ccc(O)cc2)C(=O)N[C@@H](CCCC)C(=O)N[C@@H](CC(=O)O)C(=O)N[C@@H](CCCNC(=N)N)C(=O)N[C@@H](CC(C)C)C(=O)N[C@@H](CCCCC)C(=O)N2CCC[C@H]2C(=O)N[C@@H](C(C)C)C(=O)N[C@@H](CC(=O)O)C(=O)N[C@H](C(=O)N[C@@H](CC(=O)O)C(N)=O)CSCC(=O)N[C@@H](Cc2ccccc2)C(=O)N[C@@H](Cc2ccc(O)cc2)C(=O)N[C@@H](CC(=O)O)C1=O` [Example 1001] ({CH2CO}-FYD[NHexGly]Y[Nle]DRL[Ahp(2)]PVDCD-NH2; thioether N-14): the IC50 under setting [2] was 12.7 nM.
On to `CCCCCCN1CC(=O)N[C@@H](Cc2ccc(O)cc2)C(=O)N[C@@H](CCCCC)C(=O)N[C@@H](CC(=O)O)C(=O)N[C@@H](CCCNC(=N)N)C(=O)N[C@@H](CC(C)C)C(=O)N[C@@H](CCCCC)C(=O)N2CCC[C@H]2C(=O)N[C@@H](C(C)C)C(=O)N[C@@H](CC(=O)O)C(=O)N[C@H](C(=O)N[C@H](CC(=O)O)C(N)=O)CSCC(=O)N[C@@H](Cc2ccccc2)C(=O)N[C@@H](Cc2ccc(O)cc2)C(=O)N[C@@H](CC(=O)O)C1=O` [Example 1002] ({CH2CO}-FYD[NHexGly]Y[Ahp(2)]DRL[Ahp(2)]PVDC[dD]-NH2; thioether N-14), for which the IC50 under setting [2] was 14.9 nM.
Regarding `CCCCCCN1CC(=O)N[C@@H](Cc2ccc(O)cc2)C(=O)N[C@@H](CCCC)C(=O)N[C@@H](CC(=O)O)C(=O)N[C@@H](CCCNC(=N)N)C(=O)N[C@@H](CC(C)C)C(=O)N[C@@H](CCCCC)C(=O)N2CCC[C@H]2C(=O)N[C@@H](C(C)C)C(=O)N[C@@H](CC(=O)O)C(=O)N[C@H](C(=O)N[C@H](CC(=O)O)C(N)=O)CSCC(=O)N[C@@H](Cc2ccccc2)C(=O)N[C@@H](Cc2ccc(O)cc2)C(=O)N[C@@H](CC(=O)O)C1=O` [Example 1003] ({CH2CO}-FYD[NHexGly]Y[Nle]DRL[Ahp(2)]PVDC[dD]-NH2; thioether N-14), the IC50 under setting [2] is 18.8 nM.
For `CCCCCCN1CC(=O)N[C@@H](Cc2ccc(O)cc2)C(=O)N[C@@H](CCCCC)C(=O)N[C@@H](CC(=O)O)C(=O)N[C@@H](CCCNC(=N)N)C(=O)N[C@@H](CC(C)C)C(=O)N[C@@H](CCCCC)C(=O)N2CCC[C@H]2C(=O)N[C@@H](C(C)C)C(=O)N[C@@H](CC(=O)O)C(=O)N[C@H](C(=O)N[C@@H](CCC(=O)O)C(N)=O)CSCC(=O)N[C@@H](Cc2ccccc2)C(=O)N[C@@H](Cc2ccc(O)cc2)C(=O)N[C@@H](CC(=O)O)C1=O` [Example 1004] ({CH2CO}-FYD[NHexGly]Y[Ahp(2)]DRL[Ahp(2)]PVDCE-NH2; thioether N-14), the concentration for half-maximal inhibition (IC50) under setting [2] was found to be 12.9 nM.
As for `CCCCCCN1CC(=O)N[C@@H](Cc2ccc(O)cc2)C(=O)N[C@@H](CCCC)C(=O)N[C@@H](CC(=O)O)C(=O)N[C@@H](CCCNC(=N)N)C(=O)N[C@@H](CC(C)C)C(=O)N[C@@H](CCCCC)C(=O)N2CCC[C@H]2C(=O)N[C@@H](C(C)C)C(=O)N[C@@H](CC(=O)O)C(=O)N[C@H](C(=O)N[C@@H](CCC(=O)O)C(N)=O)CSCC(=O)N[C@@H](Cc2ccccc2)C(=O)N[C@@H](Cc2ccc(O)cc2)C(=O)N[C@@H](CC(=O)O)C1=O` [Example 1005] ({CH2CO}-FYD[NHexGly]Y[Nle]DRL[Ahp(2)]PVDCE-NH2; thioether N-14), the IC50 under setting [2] stood at 12.7 nM.
`CCCCCCN1CC(=O)N[C@@H](Cc2ccc(O)cc2)C(=O)N[C@@H](CCCCC)C(=O)N[C@@H](CC(N)=O)C(=O)N[C@@H](CCCNC(=N)N)C(=O)N[C@@H](CC(C)C)C(=O)N[C@@H](CCCCC)C(=O)N2CCC[C@H]2C(=O)N[C@@H](C(C)C)C(=O)N[C@@H](C)C(=O)N[C@H](C(=O)NCC(N)=O)CSCC(=O)N[C@@H](Cc2ccccc2)C(=O)N[C@@H](Cc2ccc(O)cc2)C(=O)N[C@@H](CC(=O)O)C1=O` [Example 1006] ({CH2CO}-FYD[NHexGly]Y[Ahp(2)]NRL[Ahp(2)]PVACG-NH2; thioether N-14): the IC50 under setting [2] is 38.6 nM.
As for `CCCCCCN1CC(=O)N[C@@H](Cc2ccc(O)cc2)C(=O)N[C@@H](CCCC)C(=O)NCC(=O)N[C@@H](CCCNC(=N)N)C(=O)N[C@@H](CC(C)C)C(=O)N[C@@H](CCCCC)C(=O)N2CCC[C@H]2C(=O)N[C@@H](C(C)C)C(=O)N[C@@H](C)C(=O)N[C@H](C(=O)NCC(=O)O)CSCC(=O)N[C@@H](Cc2ccccc2)C(=O)N[C@@H](Cc2ccc(O)cc2)C(=O)N[C@@H](CC(=O)O)C1=O` [Example 1007] ({CH2CO}-FYD[NHexGly]Y[Nle]GRL[Ahp(2)]PVACG-OH; thioether N-14), under setting [2], the IC50 came out at 15.1 nM.
Same read-out and setting: with `CCCCCCN1CC(=O)N[C@@H](Cc2ccc(O)cc2)C(=O)N[C@@H](CC(C)C)C(=O)N[C@@H](CC(N)=O)C(=O)N[C@@H](CCCNC(=N)N)C(=O)N[C@@H](CC(C)C)C(=O)N[C@@H](CCCCC)C(=O)N2CCC[C@H]2C(=O)N[C@@H](C(C)C)C(=O)N[C@@H](C)C(=O)N[C@H](C(=O)NCC(=O)O)CSCC(=O)N[C@@H](Cc2ccccc2)C(=O)N[C@@H](Cc2ccc(O)cc2)C(=O)N[C@@H](CC(=O)O)C1=O` [Example 1008] ({CH2CO}-FYD[NHexGly]YLNRL[Ahp(2)]PVACG-OH; thioether N-14) the figure was 34.9 nM; with `CCCCCCN1CC(=O)N[C@@H](Cc2ccc(O)cc2)C(=O)N[C@@H](CCCC)C(=O)NCC(=O)N[C@@H](CCCNC(=N)N)C(=O)N[C@@H](CC(C)C)C(=O)N[C@@H](CCCCC)C(=O)N2CCC[C@H]2C(=O)N[C@@H](C(C)C)C(=O)N[C@@H](CC(=O)O)C(=O)N[C@H](C(=O)NCC(=O)O)CSCC(=O)N[C@@H](Cc2ccccc2)C(=O)N[C@@H](Cc2ccc(O)cc2)C(=O)N[C@@H](CC(=O)O)C1=O` [Example 1009] ({CH2CO}-FYD[NHexGly]Y[Nle]GRL[Ahp(2)]PVDCG-OH; thioether N-14), 8 nM.
Turning to `CCCCCCN1CC(=O)N[C@@H](Cc2ccc(O)cc2)C(=O)N[C@@H](CCCC)C(=O)N[C@@H](CC(=O)O)C(=O)N[C@@H](CCCNC(=N)N)C(=O)N[C@@H](CC(C)C)C(=O)N[C@@H](CCCCC)C(=O)N2CCC[C@H]2C(=O)N[C@@H](C(C)C)C(=O)N[C@@H](CC(=O)O)C(=O)N[C@H](C(=O)NCC(=O)O)CSCC(=O)N[C@@H](Cc2ccccc2)C(=O)N[C@@H](Cc2ccc(O)cc2)C(=O)N[C@@H](CC(=O)O)C1=O` [Example 1010] ({CH2CO}-FYD[NHexGly]Y[Nle]DRL[Ahp(2)]PVDCG-OH; thioether N-14), under setting [2], the IC50 came to 5.6 nM.
On the same count and under the same terms, with `CCCCCCN1CC(=O)N[C@@H](Cc2ccc(O)cc2)C(=O)N[C@@H](CC(C)C)C(=O)N[C@@H](CC(N)=O)C(=O)N[C@@H](CCCNC(=N)N)C(=O)N[C@@H](CC(C)C)C(=O)N[C@@H](CCCCC)C(=O)N2CCC[C@H]2C(=O)N[C@@H](C(C)C)C(=O)N[C@@H](CC(=O)O)C(=O)N[C@H](C(=O)NCC(=O)O)CSCC(=O)N[C@@H](Cc2ccccc2)C(=O)N[C@@H](Cc2ccc(O)cc2)C(=O)N[C@@H](CC(=O)O)C1=O` [Example 1011] ({CH2CO}-FYD[NHexGly]YLNRL[Ahp(2)]PVDCG-OH; thioether N-14) the figure was 15.9 nM.
The same measure, in the same setting: with `CCCCCCN1CC(=O)N[C@@H](Cc2ccc(O)cc2)C(=O)N[C@@H](CCCNC(=N)N)C(=O)N[C@@H](CC(N)=O)C(=O)N[C@@H](CCCNC(=N)N)C(=O)N[C@@H](CC(C)C)C(=O)N[C@@H](CCCCC)C(=O)N2CCC[C@H]2C(=O)N[C@@H](C(C)C)C(=O)N[C@@H](CC(=O)O)C(=O)N[C@H](C(=O)NCC(=O)O)CSCC(=O)N[C@@H](Cc2ccccc2)C(=O)N[C@@H](Cc2ccc(O)cc2)C(=O)N[C@@H](CC(=O)O)C1=O` [Example 1012] ({CH2CO}-FYD[NHexGly]YRNRL[Ahp(2)]PVDCG-OH; thioether N-14) the figure was 21.1 nM.

The values are drawn from patent US20240218022A1, “ANTI-VISTA MACROCYCLIC PEPTIDES AND COMPOSITIONS” (BRISTOL-MYERS SQUIBB COMPANY, priority 2022, published 2024).
